Calls of active or inactive are those of the source. The calls are words filed in the database; no cut-off is given here.
Experiments:
[1] = test system: Schistosoma japonicum; assay: Anti-schistosomal activity against male adult Schistosoma japonicum assessed as loss of tegumental architecture at 25 uM measured after 72 hrs by SEM analysis; format: functional, organism-based
[2] = test system: Schistosoma japonicum; assay: Anti-schistosomal activity against male adult Schistosoma japonicum assessed as appearance of degradation of subtegumental matrix at 25 uM measured for 72 hrs by SEM analysis; format: functional, organism-based
[3] = test system: Schistosoma japonicum; assay: Anti-schistosomal activity against adult Schistosoma japonicum assessed as collapse of sucker musculature at 25 uM measured for 72 hrs by SEM analysis; format: functional, organism-based
[4] = Acute toxicity in ICR mouse assessed as BUN level at 1144 mg/kg, po administered for 7 days; format: organism-based; details: in vivo, 168 h, time 7 day
[5] = Acute toxicity in ICR mouse assessed as AST level at 1144 mg/kg, po administered for 7 days; format: organism-based; details: in vivo, 168 h, time 7 day
[6] = test system: Schistosoma japonicum; assay: Anti-schistosomal activity against adult Schistosoma japonicum assessed as worm mortality at 100 uM measured at 12 hrs relative to control; format: functional
[7] = test system: Schistosoma japonicum; assay: Anti-schistosomal activity against juvenile Schistosoma japonicum infected in ICR mouse assessed as number of eggs in hepatocyte at 25 mg/kg, ip administered for 7 days; format: functional, organism-based; details: time 7.0 day
[8] = test system: Schistosoma japonicum; assay: Anti-schistosomal activity against adult Schistosoma japonicum assessed as worm mortality at 100 uM measured at 24 hrs relative to control; format: functional
[9] = test system: Schistosoma japonicum; assay: Anti-schistosomal activity against adult Schistosoma japonicum infected in ICR mouse assessed as reduction in worm burden at 25 mg/kg, ip administered for 7 days; format: functional; parameters: scale not given: the % may be the effect or the level left; details: time 7 day
[10] = test system: Schistosoma japonicum; assay: Anti-schistosomal activity against male adult Schistosoma japonicum assessed as disruption of tegument spines on the oral suckers at 25 uM measured for 72 hrs by SEM analysis; format: functional, organism-based
[11] = Acute toxicity in ICR mouse assessed as TBIL level at 1144 mg/kg, po administered for 7 days; format: organism-based; details: in vivo, 168 h, time 7 day
[12] = test system: Schistosoma japonicum; assay: Anti-schistosomal activity against female adult Schistosoma japonicum assessed as loss of tegumental architecture at 25 uM measured after 72 hrs by SEM analysis; format: functional, organism-based
[13] = test system: Schistosoma japonicum; assay: Anti-schistosomal activity against adult Schistosoma japonicum assessed as mortality by measuring body twisting at 50 uM incubated for 1 to 72 hrs by optical microscopic analysis; format: functional, organism-based; details: time 1-72 hrs
[14] = Acute toxicity in po dosed ICR mouse assessed as lethal dose; format: organism-based; details: in vivo
[15] = test system: Schistosoma japonicum; assay: Anti-schistosomal activity against male adult Schistosoma japonicum assessed as surface destabilization at 25 uM measured for 72 hrs by SEM analysis; format: functional, organism-based
[16] = test system: Schistosoma japonicum; assay: Anti-schistosomal activity against male adult Schistosoma japonicum assessed as complete loss of sucker-associated muscular architecture at 25 uM measured for 72 hrs by SEM analysis; format: functional, organism-based
[17] = Acute toxicity in ICR mouse assessed as ALT level at 1144 mg/kg, po administered for 7 days; format: organism-based; details: in vivo, 168 h, time 7 day
[18] = test system: Schistosoma japonicum; assay: Anti-schistosomal activity against juvenile Schistosoma japonicum infected in ICR mouse assessed as number of worms at 25 mg/kg, ip administered for 7 days; format: functional; details: time 7 day
[19] = test system: Schistosoma japonicum; assay: Anti-schistosomal activity against adult Schistosoma japonicum measured at 72 hrs; format: functional, organism-based
[20] = test system: Schistosoma japonicum; assay: Anti-schistosomal activity against adult Schistosoma japonicum assessed as worm mortality at 100 uM measured at 72 hrs relative to control; format: functional
[21] = Toxicity in ICR mouse infected with Schistosoma japonicum assessed as serum BUN level at 25 mg/kg, ip administered for 7 days; format: organism-based; details: in vivo, 168 h, time 7 day
[22] = test system: Schistosoma japonicum; assay: Anti-schistosomal activity against male adult Schistosoma japonicum assessed as appearance of intact tegument surface at 25 uM measured for 72 hrs by SEM analysis; format: functional, organism-based
[23] = test system: Schistosoma japonicum; assay: Anti-schistosomal activity against male adult Schistosoma japonicum assessed as appearance of sensory papillae at 25 uM measured for 72 hrs by SEM analysis; format: functional, organism-based
[24] = test system: Schistosoma japonicum; assay: Anti-schistosomal activity against adult Schistosoma japonicum assessed as worm mortality at 100 uM measured at 48 hrs relative to control; format: functional
[25] = test system: Schistosoma japonicum; assay: Anti-schistosomal activity against adult Schistosoma japonicum infected in ICR mouse assessed as number of worms at 25 mg/kg, ip administered for 7 days; format: functional; details: time 7 day
[26] = test system: Schistosoma japonicum; assay: Anti-schistosomal activity against adult Schistosoma japonicum assessed as muscle contractions at 50 uM incubated for 1 to 72 hrs by optical microscopic analysis; format: functional, organism-based; details: time 1-72 hrs
[27] = test system: Schistosoma japonicum; assay: Anti-schistosomal activity against adult Schistosoma japonicum assessed as darkened body pigmentation at 50 uM incubated for 1 to 72 hrs by optical microscopic analysis; format: functional, organism-based; details: time 1-72 hrs
[28] = Acute toxicity in ICR mouse assessed as liver damage at 1144 mg/kg, po administered for 7 days by H and E staining based analysis; format: organism-based; details: in vivo, 168 h, time 7 day
[29] = test system: Schistosoma japonicum; assay: Anti-schistosomal activity against adult Schistosoma japonicum assessed as disintegration of tegument at 25 uM measured for 72 hrs by SEM analysis; format: functional, organism-based
[30] = test system: Schistosoma japonicum; assay: Anti-schistosomal activity against male adult Schistosoma japonicum assessed as appearance of parallel wrinkles at 25 uM measured for 72 hrs by SEM analysis; format: functional, organism-based
[31] = test system: Schistosoma japonicum; assay: Anti-schistosomal activity against adult Schistosoma japonicum assessed as worm mortality at 100 uM measured at 8 hrs relative to control; format: functional
[32] = test system: Schistosoma japonicum; assay: Anti-schistosomal activity against adult Schistosoma japonicum assessed as reduction in oviposition at 50 uM incubated for 72 hrs by optical microscopic analysis; format: functional, organism-based
[33] = test system: Schistosoma japonicum; assay: Anti-schistosomal activity against juvenile Schistosoma japonicum infected in ICR mouse assessed as reduction in worm burden at 25 mg/kg, ip administered for 7 days; format: functional; parameters: scale not given: the % may be the effect or the level left; details: time 7 day
[34] = test system: Schistosoma japonicum; assay: Anti-schistosomal activity against juvenile Schistosoma japonicum infected in ICR mouse assessed as cellular vacuolization at 25 mg/kg, ip administered for 7 days; format: functional, organism-based; details: time 7.0 day
[35] = test system: Schistosoma japonicum; assay: Anti-schistosomal activity against juvenile Schistosoma japonicum infected in ICR mouse assessed as accumulation of inflammatory cells at 25 mg/kg, ip administered for 7 days; format: functional, organism-based; details: time 7.0 day
[36] = test system: Schistosoma japonicum; assay: Anti-schistosomal activity against adult Schistosoma japonicum assessed as worm mortality at 100 uM measured at 4 hrs relative to control; format: functional

## CCOC(=O)/C=C1\S/C(=N\c2ccc(C(F)(F)F)cc2)N(CCCN2CCN(C)CC2)C1=O
[1]
  Activity: Active
[2]
  Activity: Active
[3]
  Activity: Active
[4]
  Activity: 9.6 mM
[5]
  Activity: 41 U/L
[6]
  mortality at 100 µM: 100%
[7]
  Activity: Active
[8]
  mortality at 100 µM: 100%
[9]
  Activity: 52%
[10]
  Activity: Active
[11]
  Activity: 3.24 µM
[12]
  Activity: Active
[13]
  Activity: Active
[14]
  LD50: 1400 mg/kg
[15]
  Activity: Active
[16]
  Activity: Active
[17]
  Activity: 142 U/L
[18]
  Activity: 32%
[19]
  IC50: 25.3 µM
[20]
  mortality at 100 µM: 100%
[21]
  Activity: 7.22 mM
[22]
  Activity: Active
[23]
  Activity: Active
[24]
  mortality at 100 µM: 100%
[25]
  Activity: 24%
[26]
  Activity: Active
[27]
  Activity: Active
[28]
  Activity: Non-toxic
[29]
  Activity: Active
[30]
  Activity: Active
[31]
  mortality at 100 µM: 50%
[32]
  Activity: Active
[33]
  Activity: 26%
[34]
  Activity: Active
[35]
  Activity: Active
[36]
  mortality at 100 µM: 20%

Source: ChEMBL document CHEMBL6182876, “Design, synthesis and preliminary structure-activity relationship of 2-iminothiazolidine-4-one derivatives against Schistosoma japonicum in vitro and in vivo” (Eur J Med Chem, 2025)
